# US20220280515A1, “Ophthalmic Composition for Promoting Tear Secretion” (Rohto Pharmaceutical Co., Ltd., priority 2019, published 2022)
# Where a name gives a salt, the structure may show the parent alone.
# Key:
# [1] = tested on: lacrimal gland excised rats; assay: Action of ameliorating keratoconjunctival epithelial disorders by repeated ophthalmic administration, fluorescein staining score, lacrimal gland excised rats (dry eye model); type: in vivo, SD rats; conditions: main lacrimal gland excised rats; each concentration (0.0125%, 0.05%, 0.2%), 5 μL/eye four times a day, four weeks; Steel test
# Method: The action of ameliorating keratoconjunctival epithelial disorders of delgocitinib was evaluated using rats with lacrimal gland excision used as a dry eye model. Fluorescein sodium salt (Sigma-Aldrich Japan) was dissolved in OTSUKA NORMAL SALINE (Otsuka Pharmaceutical Factory, Inc.) to prepare a 10 mg/mL fluorescein staining solution. Delgocitinib was dissolved and stirred in PBS (Kohjin Bio Co., Ltd.) to prepare delgocitinib solutions at each concentration (0.0125%, 0.05%, and 0.2%). Into male SD rats (Japan SLC, Inc.) whose main lacrimal gland had been excised 1 week earlier, the PBS or the delgocitinib solutions at each concentration were repeatedly instilled four times a day at a dose of 5 μL/eye. Four weeks after the start of ophthalmic instillation, the 10 mg/mL fluorescein staining solution was instilled at a dose of 1 μL/eye. After induction of anesthesia with an ISOFLURANE inhalation solution (Pfizer Japan Inc.), a photograph was taken with a fluorescence microscope (Leica Microsystems). The cornea captured in the photograph was divided into four sections, the staining score of each section was scored on a scale of 0 to 5, and the total score of four sections was used as the corneal epithelial disorder score for the eye.
# normal rats = assay: Tear secretion promoting action by single ophthalmic administration, Schirmer's test paper, normal rats; type: in vivo, Sprague-Dawley (SD) rats; conditions: 5 μL/eye single instillation (DIQUAS 3%, 3% pilocarpine, 0.05% delgocitinib), 15 minutes later, Mann-whitney U test
# Method: (§1) The tear secretion promoting action of delgocitinib was evaluated using normal rats and lacrimal gland excision rats.
# (§2) As a test substance, a 0.05% delgocitinib solution (delgocitinib as the active ingredient and sodium chloride, potassium chloride, sodium hydroxide, boric acid, and chlorhexidine gluconate as additives were combined, dissolved and stirred in purified water) was prepared. As a control substance, pilocarpine hydrochloride (Tokyo Chemical Industry Co., Ltd.) was dissolved and stirred in saline (OTSUKA NORMAL SALINE, Otsuka Pharmaceutical Factory, Inc.) to prepare a 3% pilocarpine solution.
# (§3) Into normal male Sprague-Dawley (SD) rats (Japan SLC, Inc.) and SD rats whose main and accessory lacrimal glands had been excised 1 week earlier, saline, the DIQUAS ophthalmic solution 3% (Santen Pharmaceutical Co., Ltd.), the 3% pilocarpine solution, or the 0.05% delgocitinib solution was instilled at a dose of 5 μL/eye. Ten minutes later, anesthesia was induced using somnopentyl (Kyoritsu Seiyaku Corporation), and another 5 minutes later, a Schirmer's test paper was inserted into conjunctival sac on the corner of the eye. One minute later, the test paper was pulled out, and the length of the wet part of the test paper was measured, and this measured value was used as a tear volume.
# [2] = tested on: lacrimal gland excised rats; assay: Tear volume increasing action by repeated ophthalmic administration, lacrimal gland excised rats (dry eye model); type: in vivo, Sprague-Dawley (SD) rats; conditions: main lacrimal gland excised rats; each concentration (0.0125%, 0.05%, 0.2%), 5 μL/eye four times a day, four weeks; Steel test
# Method: The tear secretion volume increasing action of delgocitinib was evaluated using lacrimal gland excised rats as a dry eye model. Delgocitinib was dissolved and stirred in PBS (Kohjin Bio Co., Ltd.) to prepare delgocitinib solutions (0.0125%, 0.05%, and 0.2%) at each concentration. Into normal male Sprague-Dawley (SD) rats (Japan SLC, Inc.) and SD rats whose main lacrimal gland had been excised 1 week earlier, the PBS or the delgocitinib solutions at each concentration were repeatedly instilled four times a day at a dose of 5 μL/eye. Four weeks after the start of ophthalmic instillation, the PBS or the delgocitinib solutions at each concentration were instilled at a dose of 5 μL/eye, anesthesia was induced using somnopentyl (Kyoritsu Seiyaku Corporation) 10 minutes later, and another 5 minutes later, a Schirmer's test paper was inserted into conjunctival sac on the corner of the eye. One minute later, the test paper was pulled out, and the length of the wet part of the test paper was measured, and this measured value was used as a tear volume.
# normal mice = assay: Tear secretion promoting action by single ophthalmic administration, phenol red thread, normal mice; type: in vivo, C57BL/6J mice; conditions: 3 μL/eye single instillation, 15 minutes later
# Method: The tear secretion promoting action of delgocitinib was evaluated using normal mice. Delgocitinib was dissolved and stirred in PBS (Kohjin Bio Co., Ltd.) to prepare delgocitinib solutions at each concentration (0.0125%, 0.05%, and 0.2%). Female C57BL/6J mice (Japan SLC, Inc.) were retained, and the PBS or the delgocitinib solutions at each concentration were instilled at a dose of 3 μL/eye. Fifteen minutes later, a phenol red thread (ZONE-QUICK, AYUMI Pharmaceutical Corporation) was inserted into conjunctival sac on the corner of the eye. Fifteen seconds later, the phenol red thread was pulled out, the length of the wet part of the phenol red thread was measured, and this measured value was used as the tear volume.
# [3] = tested on: lacrimal gland excised rats; assay: Tear secretion promoting action by single ophthalmic administration, Schirmer's test paper, lacrimal gland excised rats; type: in vivo, Sprague-Dawley (SD) rats; conditions: rats with main and accessory lacrimal glands excised 1 week earlier; 5 μL/eye single instillation (DIQUAS 3%, 3% pilocarpine, 0.05% delgocitinib); 15 minutes later; Mann-whitney U test
# Method: as §1, §2, §3
# normal rabbits = assay: Tear secretion promoting action by single ophthalmic administration, Schirmer's test paper, normal rabbits; type: in vivo, Japanese white rabbits; conditions: 0.05% solution in PBS, 50 μL/eye single instillation, 15 minutes later, Student's t test
# Method: The tear secretion promoting action of delgocitinib was evaluated using normal rabbits. Delgocitinib was dissolved and stirred in PBS (Kohjin Bio Co., Ltd.) to prepare a 0.05% delgocitinib solution. Male Japanese white rabbits (Oriental Yeast Co., Ltd.) were placed in retention tubes, and the PBS or the 0.05% delgocitinib solution was instilled at a dose of […]. Fifteen minutes later, a Schirmer's test paper was inserted into conjunctival sac on the corner of the eye. One minute later, the test paper was pulled out, and the length of the wet part of the test paper was measured, which was used as a tear volume.
# dry eye model of rats = conditions: reported in Non Patent Literature 1; cited from earlier work
Structure (SMILES),"corneal epithelial disorder score (fluorescein staining, total of four sections each 0 to 5) compared with the PBS group [1]",tear volume (length of the wet part of Schirmer's test paper) compared with the saline group (normal rats),tear volume (length of the wet part of Schirmer's test paper) compared with the PBS group [2],"tear volume (length of the wet part of phenol red thread) compared with the PBS group (normal mice; 0.05% solution, Dunnett's test)","tear volume (length of the wet part of phenol red thread) compared with the PBS group (normal mice; 0.2% solution, Dunnett's test)","tear volume (length of the wet part of phenol red thread) compared with the PBS group (normal mice; each concentration (0.0125%, 0.05%, 0.2%))",tear volume (length of the wet part of Schirmer's test paper) compared with the saline group [3],tear volume (length of the wet part of Schirmer's test paper) compared with the PBS group (normal rabbits),corneal epithelial disorders (dry eye model of rats),secretion of tear (dry eye model of rats)
"C[C@H]1CN(C(=O)CC#N)[C@]12CCN(c1ncnc3[nH]ccc13)C2 [delgocitinib, 3-[(3S,4R)-3-methyl-6-(7H-pyrrolo[2,3-d]pyrimidin-4-yl)-1,6-diazaspiro[3.4]octan-1-yl]-3-oxopropanenitrile]",significantly decreased,significantly increased,significantly increased,significant increase,significant increase,increased,significantly increased,significantly increased,–,–
O=c1ccn([C@@H]2O[C@H](COP(=O)(O)OP(=O)(O)OP(=O)(O)OP(=O)(O)OC[C@H]3O[C@@H](n4ccc(=O)[nH]c4=O)[C@H](O)[C@@H]3O)[C@@H](O)[C@H]2O)c(=O)[nH]1 [diquafosol sodium],–,–,–,–,–,–,–,–,ameliorated corneal epithelial disorders,promoted secretion of tear
"CC[C@@H]1C(=O)OC[C@@H]1Cc1cncn1C [pilocarpine, pilocarpine hydrochloride]",–,significantly increased,–,–,–,–,significantly increased only in the DIQUAS ophthalmic solution 3% group and the 0.05% delgocitinib solution group,–,–,–
